Test results from ChEMBL document CHEMBL4118260, “Structure-based drug design to overcome species differences in kallikrein 7 inhibition of 1,3,6-trisubstituted 1,4-diazepan-7-ones” (Bioorg Med Chem, 2018).

Experiments:
[1] = molecular target: Kallikrein-7 (Homo sapiens, UniProt P49862); experiment: Inhibition of recombinant human C-terminal His10-tagged KLK7 (E23 to H252 residues) using MOCAcArg-Pro-Lys-Pro-Val-Glu-Nva-Trp-Arg-Lys(Dnp)-NH2 as substrate preincubated for 10 mins followed by substrate addition measured after 30 mins by fluorescence assay
Sequence of Kallikrein-7 (Homo sapiens, UniProt P49862) (P49862 whole entry, the tested form may be a part): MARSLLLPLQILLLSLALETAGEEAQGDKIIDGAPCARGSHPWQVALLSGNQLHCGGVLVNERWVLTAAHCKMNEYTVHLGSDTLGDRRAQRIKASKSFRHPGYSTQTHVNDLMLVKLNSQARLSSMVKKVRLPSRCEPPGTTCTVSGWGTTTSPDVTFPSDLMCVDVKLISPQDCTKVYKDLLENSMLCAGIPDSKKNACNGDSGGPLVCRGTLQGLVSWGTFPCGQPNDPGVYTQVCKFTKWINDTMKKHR

[2] = molecular target: Kallikrein-7 (Mus musculus, UniProt Q91VE3); experiment: Inhibition of mouse KLK7 using MOCAcArg-Pro-Lys-Pro-Val-Glu-Nva-Trp-Arg-Lys(Dnp)-NH2 as substrate preincubated for 10 mins followed by substrate addition measured after 30 mins by fluorescence assay
Sequence of Kallikrein-7 (Mus musculus, UniProt Q91VE3) (Q91VE3 whole entry): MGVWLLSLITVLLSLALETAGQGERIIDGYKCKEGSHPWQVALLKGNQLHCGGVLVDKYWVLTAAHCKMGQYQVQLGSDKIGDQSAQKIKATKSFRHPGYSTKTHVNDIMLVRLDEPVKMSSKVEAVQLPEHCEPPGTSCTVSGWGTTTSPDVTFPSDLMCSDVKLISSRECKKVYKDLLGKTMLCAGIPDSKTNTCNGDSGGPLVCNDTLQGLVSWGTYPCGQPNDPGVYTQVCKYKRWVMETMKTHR

[3] = molecular target: Kallikrein-7 (Mus musculus) (UniProt Q91VE3); experiment: Inhibition of mouse KLK7 at 30 uM using MOCAcArg-Pro-Lys-Pro-Val-Glu-Nva-Trp-Arg-Lys(Dnp)-NH2 as substrate preincubated for 10 mins followed by substrate addition measured after 30 mins by fluorescence assay relative to control
Sequence of Kallikrein-7 (Mus musculus) (Q91VE3 whole entry): as above

Row | Structure (SMILES) | IC50 [1] [µM] | IC50 [2] [µM] | inhibition [3] [%]
1 | COc1cc(Cl)ccc1CC1CN/C(=N\N(C)C)CN(CC(=O)Nc2cccc(-c3cnn(C)c3)c2)C1=O (racemic) | 7.5 | > 30 | -4.1
2 | CN(C)/N=C1/CN(CC(=O)Nc2cccc(-c3cnn(C)c3)c2)C(=O)C(Cc2ccccc2Cl)CN1 (racemic) | 2.5 | 21 | 59
3 | COc1cccc(Cl)c1CC1CN/C(=N\N(C)C)CN(CC(=O)Nc2cccc(-c3cnn(C)c3)c2)C1=O (racemic) | 11 | 14 | 67
4 | CN(C)/N=C1/CN(CC(=O)Nc2cccc(-c3cnn(C)c3)c2)C(=O)C(Cc2c(Cl)cccc2C#N)CN1 (racemic) | 11 | 7.8 | –
5 | COc1ccccc1C[C@@H]1CN/C(=N\N(C)C)CN(CC(=O)Nc2cccc(-c3cnn(C)c3)c2)C1=O | 2.4 | > 30 | 41
6 | CN(C)/N=C1/CN(CC(=O)Nc2cccc(-c3cnn(C)c3)c2)C(=O)C(Cc2c(Cl)cccc2Cl)CN1 (single isomer, unassigned; (-)) | 0.38 | 0.7 | –
7 | COc1ccc(Cl)cc1C[C@@H]1CN/C(=N\N(C)C)CN(CC(=O)Nc2cccc(C(=O)O)c2)C1=O | – | > 30 | 11
8 | Cc1cccc(C)c1CC1CN/C(=N\N(C)C)CN(CC(=O)Nc2cccc(-c3cnn(C)c3)c2)C1=O (racemic) | 5.2 | 3.8 | –
9 | Cc1cccc(F)c1CC1CN/C(=N\N(C)C)CN(CC(=O)Nc2cccc(-c3cnn(C)c3)c2)C1=O (racemic) | 2.3 | 7.7 | –
10 | CN(C)/N=C1/CN(CC(=O)Nc2cccc(-c3cnn(C)c3)c2)C(=O)C(Cc2c(F)cccc2F)CN1 (racemic) | 6.9 | > 30 | –
11 | Cc1cccc(Cl)c1CC1CN/C(=N\N(C)C)CN(CC(=O)Nc2cccc(-c3cnn(C)c3)c2)C1=O (racemic) | 1.5 | 1.6 | –
12 | COc1ccc(Cl)cc1C[C@@H]1CN/C(=N\N(C)C)CN(CC(=O)Nc2cccc(-c3cnn(C)c3)c2)C1=O | – | > 30 | -1.2
13 | COc1cccc(F)c1CC1CN/C(=N\N(C)C)CN(CC(=O)Nc2cccc(-c3cnn(C)c3)c2)C1=O (racemic) | 6.8 | > 30 | –
14 | CN(C)/N=C1/CN(CC(=O)Nc2cccc(-c3cnn(C)c3)c2)C(=O)C(Cc2ccccc2C#N)CN1 (racemic) | 17 | > 30 | 22
15 | Cc1cccc(C#N)c1CC1CN/C(=N\N(C)C)CN(CC(=O)Nc2cccc(-c3cnn(C)c3)c2)C1=O (racemic) | 11 | 7.1 | –
16 | CN(C)/N=C1/CN(CC(=O)Nc2cccc(-c3cnn(C)c3)c2)C(=O)C(Cc2c(F)cccc2C(F)(F)F)CN1 (racemic) | 2.7 | > 30 | –
17 | COc1ccc(Cl)cc1C[C@@H]1CN/C(=N\N(C)C)CN([C@@H](C)C(=O)Nc2cccc(-c3cnn(C)c3)c2)C1=O | – | > 30 | 32
18 | COc1cccc(C)c1CC1CN/C(=N\N(C)C)CN(CC(=O)Nc2cccc(-c3cnn(C)c3)c2)C1=O (racemic) | 13 | 19 | –
19 | CN(C)/N=C1/CN(CC(=O)Nc2cccc(-c3cnn(C)c3)c2)C(=O)C(Cc2c(Cl)cccc2Cl)CN1 (stereo in doubt; (+)-22g) | > 30 | 16 | –
20 | CN(C)/N=C1/CN(CC(=O)Nc2cccc(-c3cnn(C)c3)c2)C(=O)C(Cc2c(Cl)cccc2Cl)CN1 (racemic) | 0.79 | 1.2 | –
21 | CN(C)/N=C1/CN(CC(=O)Nc2cccc(-c3cnn(C)c3)c2)C(=O)C(Cc2c(F)cccc2Cl)CN1 (racemic) | 0.94 | 6 | –
